Results reported in PubChem BioAssay AID1919010 (Molecular Pharmacology Branch, DTP, NCI, 2023).
Blank lines part the entries; values can stand above or below the molecule they belong to.

Test system: Hs578T complex spheroid growth, percent test/control
Experiment: Anticancer human tumor Hs578T cell line growth inhibition [AhR];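 note: luminescent viability signal as a proxy for spheroid growth; spheroids exposed to agents for one week after three days of growth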
Settings: for IC50: curve of first compound; for viability, T/C: stronger effect = lower value
Outline: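 Complex tumor spheroids co-cultured with HUVEC and human MSC stroma; AhR antagonists tested in combination with standard-of-care and investigational agents. Top concentration at or near clinical Cmax (else 10 microM), half-log dilutions; growth expressed as percent test/control.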

[1] = second compound 0.1 µM, first compound 0.0316 µM
[2] = second compound 0.1 µM, first compound 0.1 µM
[3] = second compound 0.1 µM, first compound 0.316 µM
[4] = second compound 0.1 µM, first compound 1 µM
[5] = second compound 0.316 µM, first compound 0.0316 µM
[6] = second compound 0.316 µM, first compound 0.1 µM
[7] = second compound 0.316 µM, first compound 0.316 µM
[8] = second compound 0.316 µM, first compound 1 µM
[9] = second compound 1 µM, first compound 0.0316 µM
[10] = second compound 1 µM, first compound 0.1 µM
[11] = second compound 1 µM, first compound 0.316 µM
[12] = second compound 1 µM, first compound 1 µM
[13] = second compound 3.16 µM, first compound 0.0316 µM
[14] = second compound 3.16 µM, first compound 0.1 µM
[15] = second compound 3.16 µM, first compound 0.316 µM
[16] = second compound 3.16 µM, first compound 1 µM
[17] = second compound 10 µM, first compound 0.0316 µM
[18] = second compound 10 µM, first compound 0.1 µM
[19] = second compound 10 µM, first compound 0.316 µM
[20] = second compound 10 µM, first compound 1 µM
[21] = second compound 0.1 µM, first compound 3.16 µM
[22] = second compound 0.1 µM, first compound 10 µM
[23] = second compound 0.316 µM, first compound 3.16 µM
[24] = second compound 0.316 µM, first compound 10 µM
[25] = second compound 1 µM, first compound 3.16 µM
[26] = second compound 1 µM, first compound 10 µM
[27] = second compound 3.16 µM, first compound 3.16 µM
[28] = second compound 3.16 µM, first compound 10 µM
[29] = second compound 10 µM, first compound 3.16 µM
[30] = second compound 10 µM, first compound 10 µM
[31] = second compound 0.1 µM, first compound 0.00949 µM
[32] = second compound 0.1 µM, first compound 0.03 µM
[33] = second compound 0.1 µM, first compound 0.0949 µM
[34] = second compound 0.1 µM, first compound 0.3 µM
[35] = second compound 0.316 µM, first compound 0.00949 µM
[36] = second compound 0.316 µM, first compound 0.03 µM
[37] = second compound 0.316 µM, first compound 0.0949 µM
[38] = second compound 0.316 µM, first compound 0.3 µM
[39] = second compound 1 µM, first compound 0.00949 µM
[40] = second compound 1 µM, first compound 0.03 µM
[41] = second compound 1 µM, first compound 0.0949 µM
[42] = second compound 1 µM, first compound 0.3 µM
[43] = second compound 3.16 µM, first compound 0.00949 µM
[44] = second compound 3.16 µM, first compound 0.03 µM
[45] = second compound 3.16 µM, first compound 0.0949 µM
[46] = second compound 3.16 µM, first compound 0.3 µM
[47] = second compound 10 µM, first compound 0.00949 µM
[48] = second compound 10 µM, first compound 0.03 µM
[49] = second compound 10 µM, first compound 0.0949 µM
[50] = second compound 10 µM, first compound 0.3 µM

SMILES: CC1COCCN1c1cc(C2(S(C)(=N)=O)CC2)nc(-c2ccnc3[nH]ccc23)n1 (stereo not given) + Cc1cncc(-c2nc(NCCc3c[nH]c4ccccc34)c3ncn(C(C)C)c3n2)c1
IC50 (second compound 0.1 µM): > 10000 nM
IC50 (second compound 0.316 µM): > 10000 nM
IC50 (second compound 1 µM): > 10000 nM
IC50 (second compound 3.16 µM): > 10000 nM
IC50 (second compound 10 µM): < 31.6 nM
viability, T/C [1]: 120%
viability, T/C [2]: 115%
viability, T/C [3]: 111%
viability, T/C [4]: 102%
viability, T/C [21]: 92.1%
viability, T/C [22]: 66.2%
viability, T/C [5]: 119%
viability, T/C [6]: 119%
viability, T/C [7]: 116%
viability, T/C [8]: 113%
viability, T/C [23]: 105%
viability, T/C [24]: 60.4%
viability, T/C [9]: 106%
viability, T/C [10]: 107%
viability, T/C [11]: 118%
viability, T/C [12]: 111%
viability, T/C [25]: 98.2%
viability, T/C [26]: 62.5%
viability, T/C [13]: 62.5%
viability, T/C [14]: 57.2%
viability, T/C [15]: 59.1%
viability, T/C [16]: 64.5%
viability, T/C [27]: 55.3%
viability, T/C [28]: 43.3%
viability, T/C [17]: 8.31%
viability, T/C [18]: 8.78%
viability, T/C [19]: 9.14%
viability, T/C [20]: 8%
viability, T/C [29]: 9.08%
viability, T/C [30]: 11.8%

SMILES: COc1ccc([C@@H](O)c2cc(-c3ncnc4cc(N5CCOCC5)ccc34)c(F)cc2Cl)nn1 + Cc1cncc(-c2nc(NCCc3c[nH]c4ccccc34)c3ncn(C(C)C)c3n2)c1
IC50 (second compound 0.1 µM): 5740 nM
IC50 (second compound 0.316 µM): 5830 nM
IC50 (second compound 1 µM): 5990 nM
IC50 (second compound 3.16 µM): 2560 nM
IC50 (second compound 10 µM): < 31.6 nM
viability, T/C [1]: 108%
viability, T/C [2]: 115%
viability, T/C [3]: 104%
viability, T/C [4]: 86%
viability, T/C [21]: 61%
viability, T/C [22]: 40.3%
viability, T/C [5]: 112%
viability, T/C [6]: 114%
viability, T/C [7]: 109%
viability, T/C [8]: 92.5%
viability, T/C [23]: 59%
viability, T/C [24]: 42.1%
viability, T/C [9]: 103%
viability, T/C [10]: 118%
viability, T/C [11]: 102%
viability, T/C [12]: 84.8%
viability, T/C [25]: 58.6%
viability, T/C [26]: 43.4%
viability, T/C [13]: 68.6%
viability, T/C [14]: 61%
viability, T/C [15]: 64.8%
viability, T/C [16]: 56.2%
viability, T/C [27]: 48.4%
viability, T/C [28]: 36.1%
viability, T/C [17]: 5%
viability, T/C [18]: 4.23%
viability, T/C [19]: 5.09%
viability, T/C [20]: 5.36%
viability, T/C [29]: 7.09%
viability, T/C [30]: 9.8%

SMILES: Nc1ncn(C2CC(O)C(CO)S2)c(=O)n1 (stereo not given) + Cc1cncc(-c2nc(NCCc3c[nH]c4ccccc34)c3ncn(C(C)C)c3n2)c1
IC50 (second compound 0.1 µM): > 300 nM
IC50 (second compound 0.316 µM): > 300 nM
IC50 (second compound 1 µM): > 300 nM
IC50 (second compound 3.16 µM): > 300 nM
IC50 (second compound 10 µM): < 0.949 nM
viability, T/C (second compound 0.1 µM, first compound 0.000949 µM): 110%
viability, T/C (second compound 0.1 µM, first compound 0.003 µM): 119%
viability, T/C [31]: 117%
viability, T/C [32]: 108%
viability, T/C [33]: 104%
viability, T/C [34]: 92.9%
viability, T/C (second compound 0.316 µM, first compound 0.000949 µM): 116%
viability, T/C (second compound 0.316 µM, first compound 0.003 µM): 114%
viability, T/C [35]: 115%
viability, T/C [36]: 107%
viability, T/C [37]: 108%
viability, T/C [38]: 93.9%
viability, T/C (second compound 1 µM, first compound 0.000949 µM): 92.2%
viability, T/C (second compound 1 µM, first compound 0.003 µM): 95.3%
viability, T/C [39]: 91%
viability, T/C [40]: 82.4%
viability, T/C [41]: 88.8%
viability, T/C [42]: 86.4%
viability, T/C (second compound 3.16 µM, first compound 0.000949 µM): 46.2%
viability, T/C (second compound 3.16 µM, first compound 0.003 µM): 54.2%
viability, T/C [43]: 55.5%
viability, T/C [44]: 49.4%
viability, T/C [45]: 47%
viability, T/C [46]: 55%
viability, T/C (second compound 10 µM, first compound 0.000949 µM): 14.1%
viability, T/C (second compound 10 µM, first compound 0.003 µM): 7.61%
viability, T/C [47]: 7.86%
viability, T/C [48]: 8.27%
viability, T/C [49]: 7.59%
viability, T/C [50]: 7.47%

More lines, main results first:

IC50 (second compound 0.1 µM): 589 nM
IC50 (second compound 0.316 µM): 662 nM
IC50 (second compound 1 µM): 342 nM
IC50 (second compound 3.16 µM): 104 nM
IC50 (second compound 10 µM): < 3.16 nM
SMILES: CC1COCCN1c1cc(-c2ccnn2C)c2ccnc(-c3ccn[nH]3)c2n1 (stereo not given) + Cc1cncc(-c2nc(NCCc3c[nH]c4ccccc34)c3ncn(C(C)C)c3n2)c1
viability, T/C (second compound 0.1 µM, first compound 0.00316 µM): 109%
viability, T/C (second compound 0.1 µM, first compound 0.01 µM): 117%
viability, T/C [1]: 109%
viability, T/C [2]: 96.8%
viability, T/C [3]: 55.8%
viability, T/C [4]: 45.1%
viability, T/C (second compound 0.316 µM, first compound 0.00316 µM): 108%
viability, T/C (second compound 0.316 µM, first compound 0.01 µM): 116%
viability, T/C [5]: 109%
viability, T/C [6]: 91.8%
viability, T/C [7]: 57.2%
viability, T/C [8]: 46%
viability, T/C (second compound 1 µM, first compound 0.00316 µM): 109%
viability, T/C (second compound 1 µM, first compound 0.01 µM): 116%
viability, T/C [9]: 103%
viability, T/C [10]: 81.7%
viability, T/C [11]: 50.6%
viability, T/C [12]: 38.5%
viability, T/C (second compound 3.16 µM, first compound 0.00316 µM): 62.9%
viability, T/C (second compound 3.16 µM, first compound 0.01 µM): 65%
viability, T/C [13]: 58.8%
viability, T/C [14]: 51.3%
viability, T/C [15]: 35.1%
viability, T/C [16]: 37.7%
viability, T/C (second compound 10 µM, first compound 0.00316 µM): 4.51%
viability, T/C (second compound 10 µM, first compound 0.01 µM): 3.84%
viability, T/C [17]: 4.82%
viability, T/C [18]: 4.52%
viability, T/C [19]: 4.47%
viability, T/C [20]: 7.62%

IC50 (second compound 0.1 µM): 402 nM
IC50 (second compound 0.316 µM): 352 nM
IC50 (second compound 1 µM): 346 nM
IC50 (second compound 3.16 µM): 148 nM
IC50 (second compound 10 µM): < 9.49 nM
SMILES: O=C(C=Cn1cnc(-c2cc(C(F)(F)F)cc(C(F)(F)F)c2)n1)NNc1cnccn1 + Cc1cncc(-c2nc(NCCc3c[nH]c4ccccc34)c3ncn(C(C)C)c3n2)c1
viability, T/C [31]: 113%
viability, T/C [32]: 100%
viability, T/C [33]: 93.7%
viability, T/C [34]: 61.6%
viability, T/C (second compound 0.1 µM, first compound 0.949 µM): 19.2%
viability, T/C (second compound 0.1 µM, first compound 3 µM): 19.4%
viability, T/C [35]: 110%
viability, T/C [36]: 110%
viability, T/C [37]: 96.4%
viability, T/C [38]: 55%
viability, T/C (second compound 0.316 µM, first compound 0.949 µM): 21.9%
viability, T/C (second compound 0.316 µM, first compound 3 µM): 19.1%
viability, T/C [39]: 101%
viability, T/C [40]: 103%
viability, T/C [41]: 93.2%
viability, T/C [42]: 55.3%
viability, T/C (second compound 1 µM, first compound 0.949 µM): 17.2%
viability, T/C (second compound 1 µM, first compound 3 µM): 19.2%
viability, T/C [43]: 84.6%
viability, T/C [44]: 71.6%
viability, T/C [45]: 59.4%
viability, T/C [46]: 39%
viability, T/C (second compound 3.16 µM, first compound 0.949 µM): 16%
viability, T/C (second compound 3.16 µM, first compound 3 µM): 14.6%
viability, T/C [47]: 6.63%
viability, T/C [48]: 4.78%
viability, T/C [49]: 2.83%
viability, T/C [50]: 1.17%
viability, T/C (second compound 10 µM, first compound 0.949 µM): 1.46%
viability, T/C (second compound 10 µM, first compound 3 µM): 1.56%
